Assay results from PubChem BioAssay (NCI).
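Cultured in 96-well plates, cells were exposed to test compound for 48 hours across five concentrations. TGI: total growth inhibition.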

Key:
Assay in all cases: NCI anticancer screen, dose series, 48 h
KM12 colon = tested on: KM12 colon
RXF 393 renal = tested on: RXF 393 renal
TK-10 renal = tested on: TK-10 renal
786-0 renal = tested on: 786-0 renal
NCI-H460 lung = tested on: NCI-H460 lung
SF-295 CNS = tested on: SF-295 CNS
M14 melanoma = tested on: M14 melanoma
LXFL 529 NSCLC = tested on: LXFL 529 NSCLC
CCRF-CEM leukemia = tested on: CCRF-CEM leukemia
HCT-15 colon = tested on: HCT-15 colon
UO-31 renal = tested on: UO-31 renal
RPMI-8226 leukemia = tested on: RPMI-8226 leukemia
HOP-62 NSCLC = tested on: HOP-62 NSCLC
SNB-75 CNS = tested on: SNB-75 CNS
NCI-H522 lung = tested on: NCI-H522 lung
DMS 114 small cell lung = tested on: DMS 114 small cell lung
HT29 colon = tested on: HT29 colon
UACC-62 melanoma = tested on: UACC-62 melanoma
IGROV1 ovarian = tested on: IGROV1 ovarian
LOX IMVI melanoma = tested on: LOX IMVI melanoma
KM20L2 colon = tested on: KM20L2 colon
SK-MEL-28 melanoma = tested on: SK-MEL-28 melanoma
U251 CNS = tested on: U251 CNS
OVCAR-4 ovarian = tested on: OVCAR-4 ovarian
COLO 205 colon = tested on: COLO 205 colon
HCC-2998 colon = tested on: HCC-2998 colon
MALME-3M melanoma = tested on: MALME-3M melanoma
OVCAR-8 ovarian = tested on: OVCAR-8 ovarian
ACHN renal = tested on: ACHN renal
HCT-116 colon = tested on: HCT-116 colon
SK-OV-3 ovarian = tested on: SK-OV-3 ovarian
SK-MEL-2 melanoma = tested on: SK-MEL-2 melanoma
A498 renal = tested on: A498 renal
SNB-78 CNS = tested on: SNB-78 CNS
DMS 273 small cell lung = tested on: DMS 273 small cell lung
SK-MEL-5 melanoma = tested on: SK-MEL-5 melanoma
OVCAR-3 ovarian = tested on: OVCAR-3 ovarian
OVCAR-5 ovarian = tested on: OVCAR-5 ovarian
UACC-257 melanoma = tested on: UACC-257 melanoma
SF-539 CNS = tested on: SF-539 CNS
NCI-H23 lung = tested on: NCI-H23 lung
SF-268 CNS = tested on: SF-268 CNS
NCI-H226 lung = tested on: NCI-H226 lung
MOLT-4 leukemia = tested on: MOLT-4 leukemia
HL-60(TB) leukemia = tested on: HL-60(TB) leukemia
SN12C renal = tested on: SN12C renal
HOP-18 NSCLC = tested on: HOP-18 NSCLC
K-562 leukemia = tested on: K-562 leukemia
DLD-1 colon = tested on: DLD-1 colon
M19-MEL melanoma = tested on: M19-MEL melanoma
A549 NSCLC = tested on: A549 NSCLC

Measured: TGI

O=C(CSc1nnc(Cc2ccccc2)o1)Nc1ccccc1
> 100 µM: KM12 colon | RXF 393 renal | TK-10 renal | 786-0 renal | NCI-H460 lung | SF-295 CNS | M14 melanoma | LXFL 529 NSCLC | CCRF-CEM leukemia | HCT-15 colon | UO-31 renal | RPMI-8226 leukemia | HOP-62 NSCLC | SNB-75 CNS | NCI-H522 lung | DMS 114 small cell lung | HT29 colon | UACC-62 melanoma | IGROV1 ovarian | LOX IMVI melanoma | KM20L2 colon | SK-MEL-28 melanoma | U251 CNS | OVCAR-4 ovarian | COLO 205 colon | HCC-2998 colon | MALME-3M melanoma | OVCAR-8 ovarian | ACHN renal | HCT-116 colon | SK-OV-3 ovarian | SK-MEL-2 melanoma | A498 renal | SNB-78 CNS | DMS 273 small cell lung | SK-MEL-5 melanoma | OVCAR-3 ovarian | OVCAR-5 ovarian | UACC-257 melanoma | SF-539 CNS | NCI-H23 lung | SF-268 CNS | NCI-H226 lung | MOLT-4 leukemia | HL-60(TB) leukemia | SN12C renal | HOP-18 NSCLC | K-562 leukemia | DLD-1 colon | M19-MEL melanoma | A549 NSCLC
